Laboratory results from patent US9505762B2, “Purine derivatives as CB2 receptor agonists” (Hoffmann-La Roche Inc., priority 2013, dated 2016).

Columns and labels:
human CB2 receptors = human CB2 receptors (Homo sapiens (Human), UniProt P34972); experiment: functional cAMP assay, CB2; type: cell-based; conditions: CHO cells expressing human CB2
human CB1 receptors = human CB1 receptors (Homo sapiens (Human), UniProt P21554); experiment: functional cAMP assay, CB1; type: cell-based; conditions: CHO cells expressing human CB1
Chain of human CB1 receptors (P21554 whole entry): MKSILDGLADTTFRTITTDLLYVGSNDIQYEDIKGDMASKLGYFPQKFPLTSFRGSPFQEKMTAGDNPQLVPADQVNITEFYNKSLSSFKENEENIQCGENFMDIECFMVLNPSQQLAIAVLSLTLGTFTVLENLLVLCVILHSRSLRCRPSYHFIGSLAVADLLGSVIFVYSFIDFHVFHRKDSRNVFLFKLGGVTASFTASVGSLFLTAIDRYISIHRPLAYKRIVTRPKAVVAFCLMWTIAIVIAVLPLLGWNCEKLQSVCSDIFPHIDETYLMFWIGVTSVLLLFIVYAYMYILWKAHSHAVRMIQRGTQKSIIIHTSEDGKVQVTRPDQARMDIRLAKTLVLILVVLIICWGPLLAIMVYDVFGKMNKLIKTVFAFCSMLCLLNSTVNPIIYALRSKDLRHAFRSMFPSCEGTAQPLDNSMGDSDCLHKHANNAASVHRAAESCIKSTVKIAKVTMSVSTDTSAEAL

Chain of human CB2 receptors (P34972 whole entry): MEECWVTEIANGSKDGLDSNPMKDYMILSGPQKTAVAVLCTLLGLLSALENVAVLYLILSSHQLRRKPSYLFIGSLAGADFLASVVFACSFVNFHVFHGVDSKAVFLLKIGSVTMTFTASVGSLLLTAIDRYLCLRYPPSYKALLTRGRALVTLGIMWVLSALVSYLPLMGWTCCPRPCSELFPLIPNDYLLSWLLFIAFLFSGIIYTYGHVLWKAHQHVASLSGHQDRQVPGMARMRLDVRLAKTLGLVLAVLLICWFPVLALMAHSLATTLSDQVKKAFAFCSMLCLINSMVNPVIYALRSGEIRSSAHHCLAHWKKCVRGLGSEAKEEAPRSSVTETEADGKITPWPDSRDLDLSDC

SMILES | EC50 (human CB2 receptors) | EC50 (human CB1 receptors)
CC(C)(C)c1nc(N2CC[C@H](O)C2)c2ncn(Cc3nnnn3CC3CC3)c2n1 [Example 164, (3S)-1-[2-tert-butyl-9-[[1-(cyclopropylmethyl)tetrazol-5-yl]methyl]purin-6-yl]pyrrolidin-3-ol] | 0.0207 µM | > 10 µM
CC(C)(C)c1nc(N2CC(O)(C(F)(F)F)C2)c2ncn(Cc3ncccc3Cl)c2n1 [Example 167, 1-[2-tert-butyl-9-[(3-chloropyridin-2-yl)methyl]purin-6-yl]-3-(trifluoromethyl)azetidin-3-ol] | 0.035 µM | > 10 µM
CC(C)(C)c1nc(N2CCC3(C2)CC3(F)F)c2ncn(Cc3ncccc3Cl)c2n1 (centres unmarked) [Example 168, 2-tert-butyl-9-[(3-chloropyridin-2-yl)methyl]-6-(2,2-difluoro-5-azaspiro[2.4]heptan-5-yl)purine] | 0.0324 µM | > 10 µM
CC1(O)CN(c2nc(C(C)(C)C)nc3c2ncn3Cc2ncccc2Cl)C1 [Example 169, 1-[2-tert-butyl-9-[(3-chloropyridin-2-yl)methyl]purin-6-yl]-3-methylazetidin-3-ol] | 0.0514 µM | > 10 µM
